Laboratory results as given in patent US12319695B2, “Sulfonamide derivative with fused pyrimidine skeleton, having epidermal growth factor receptor mutation inhibitory effect” (HANMI PHARM. CO., LTD., priority 2018, dated 2025).
“Also recorded” adds a separate entry of the source.

The compounds below were run on Ba/F3 EGFR del19/T790M/C797S cells (assay: Ba/F3 EGFR del19/T790M/C797S cell growth inhibition test (CellTiter-Glo, 72 hours)). Conditions: not given.
Type: cell-based
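Further: compounds tested in tenfold steps from 10 µM down to 0.1 nM, with luminescence read on a microplate reader.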

SMILES | proliferation inhibitory effect in Ba/F3 cell line (in words)
C=CC(=O)Nc1cc(Nc2nccc(-c3cn(C)c4ccccc34)n2)c(OC)cc1N(C)CCN(C)C [Osimertinib, reference compound] | did not show proliferation inhibitory activity; also recorded: extremely insignificant inhibitory effect

Same assay, conditions: Ba/F3 EGFR-Del19/T790M/C797S, 72 h, read-out: Ba/F3 EGFR del19/T790M/C797S cells, GI50

SMILES | GI50 [µM]
C=CC(=O)Nc1cc(Nc2nccc(-c3cn(C)c4ccccc34)n2)c(OC)cc1N(C)CCN(C)C [Osimertinib, reference compound] | > 1

Same assay, conditions: Ba/F3 cell line overexpressing EGFR del19/T790M/C797S, 72 hours, CellTiter-Glo; read-out: Ba/F3 EGFR del19/T790M/C797S cells, GI50

GI50 [µM] | SMILES
0.093 | CN1CCN(c2ccc(Nc3nc(Nc4ccccc4N(C)S(C)(=O)=O)c4c(Cl)c[nH]c4n3)c(F)c2F)CC1 [Example 58, N-(2-((5-chloro-2-((2,3-difluoro-4-(4-methylpiperazin-1-yl)phenyl)amino)-7H-pyrrolo[2,3-d]pyrimidine-4-yl)amino)phenyl)-N-methylmethanesulfonamide]
0.041 | CN1CCN(c2ccc(Nc3nc(Nc4ccccc4N(C)S(C)(=O)=O)c4c(Cl)c[nH]c4n3)cn2)CC1 [Example 59, N-(2-((5-chloro-2-((6-(4-methylpiperazin-1-yl)pyridin-3-yl)amino)-7H-pyrrolo[2,3-d]pyrimidine-4-yl)amino)phenyl)-N-methylmethanesulfonamide]
0.015 | Cc1c[nH]c2nc(Nc3ccc(N4CCN(C)CC4)c(F)c3)nc(Nc3ccccc3N(C)S(C)(=O)=O)c12 [Example 60, N-(2-((2-((3-fluoro-4-(4-methylpiperazin-1-yl)phenyl)amino)-5-methyl-7H-pyrrolo[2,3-d]pyrimidine-4-yl)amino)phenyl)-N-methylmethanesulfonamide]
0.046 | CN1CCN(c2ccc(Nc3nc(Nc4ccccc4N(C)S(C)(=O)=O)c4c(C#N)c[nH]c4n3)cc2F)CC1 [Example 61, N-(2-((5-cyano-2-((3-fluoro-4-(4-methylpiperazin-1-yl)phenyl)amino)-7H-pyrrolo[2,3-d]pyrimidine-4-yl)amino)phenyl)-N-methylmethanesulfonamide]
0.046 | CN1CCN(c2ccc(Nc3nc(Nc4ccccc4N(C)S(C)(=O)=O)c4c(F)c[nH]c4n3)cc2F)CC1 [Example 62, N-(2-((5-fluoro-2-((3-fluoro-4-(4-methylpiperazin-1-yl)phenyl)amino)-7H-pyrrolo[2,3-d]pyrimidine-4-yl)amino)phenyl)-N-methylmethanesulfonamide]
0.064 | CCN1CCN(c2ccc(Nc3nc(Nc4ccccc4N(C)S(C)(=O)=O)c4c(F)c[nH]c4n3)cc2F)CC1 [Example 63, N-(2-((2-((4-(4-ethylpiperazin-1-yl)-3-fluorophenyl)amino)-5-fluoro-7H-pyrrolo[2,3-d]pyrimidine-4-yl)amino)phenyl)-N-methylmethanesulfonamide]
0.028 | CN1CCN(C2CCN(c3ccc(Nc4nc(Nc5ccccc5N(C)S(C)(=O)=O)c5c(F)c[nH]c5n4)cc3F)CC2)CC1 [Example 64, N-(2-((5-fluoro-2-((3-fluoro-4-(4-(4-methylpiperazin-1-yl)piperidin-1-yl)phenyl)amino)-7H-pyrrolo[2,3-d]pyrimidine-4-yl)amino)phenyl)-N-methylmethanesulfonamide]
0.063 | CN1CCN(c2ccc(Nc3nc(Nc4ccccc4N(C)S(C)(=O)=O)c4nc[nH]c4n3)cc2F)CC1 [Example 66, N-(2-((2-((3-fluoro-4-(4-methylpiperazin-1-yl)phenyl)amino)-9H-purine-6-yl)amino)phenyl)-N-methylmethanesulfonamide]
0.254 | CN1CCN(c2ccc(Nc3nc(Nc4ccccc4N(C)S(C)(=O)=O)c4cn[nH]c4n3)cc2F)CC1 [Example 67, N-(2-((6-((3-fluoro-4-(4-methylpiperazin-1-yl)phenyl)amino)-1H-pyrazolo[3,4-d]pyrimidine-4-yl)amino)phenyl)-N-methylmethanesulfonamide]

Same assay, conditions: read-out: Ba/F3 EGFR del19/T790M/C797S cells, GI50

SMILES | GI50 [µM]
C=CC(=O)Nc1cc(Nc2nccc(-c3cn(C)c4ccccc34)n2)c(OC)cc1N(C)CCN(C)C [Osimertinib, reference compound] | 1.12
